Data on 1 compound can be found in patent publication US8153559B2, “Certain plant growth regulators (PGRs) as safener to Glyphosate for application to Glyphosate-tolerant crops” (CP Bio, Inc., priority 2004, dated 2012).

The subject of the series is Round-Up Ready crops. Put plainly: Field tests on use of Glyphosate on Round-Up Ready crops. The following applies: Glyphosate-tolerant (Round-Up Ready) crops. It counts as in vivo. From the text: This adverse effect is referred to as the Glyphosate's phytotoxicity in present application.

In the case of `O=C(O)CNCP(=O)(O)O` [Glyphosate], the “effect on the growth of Round-Up Ready crops (Glyphosate's phytotoxicity)” value is on record as “substantial adverse effect to the growth”.
